Laboratory results as given in paper PMC12645191, “Dicarboxylate and dicarboxylic acid appended supramolecular self-associating amphiphiles as antimicrobial agents against high priority bacterial pathogens” (Organic & Biomolecular Chemistry, 2025).
Several values for one entry are separate records, joined by “and”; a condition that tells them apart may be missing. Equal entries are not always repeated. Each block holds one compound with its values, some of them ahead of it.

Assays:
[1] = system: E. faecium NCTC 12204; assay: inhibition of bacterial growth, OD600 after 20 h; format: cell-based, Enterococcus faecium; settings: SSA 5.0 mM, 2.5% ethanol, negative = enhanced growth
Method: (§1) With the self-associative properties of 1–10 established, the antimicrobial activity of these SSAs were determined against a panel of clinically relevant, high-priority pathogens including: P. aeruginosa PAO1; Klebsiella pneumonia (K. pneumoniae) M6; E. coli NCTC 12923; Acinetobacter baumannii (A. baumannii) ATCC 17978; S. aureus ATCC 9144; Enterococcus faecalis (E. faecalis) NCTC 775; and Enterococcus faecium (E. faecium) NCTC 12204. […] However, it should be noted that the SSA stock solution was prepared in a H2O 5% EtOH solution, to ensure that the SSA aggregates formed were in line with those characterised within the scope of the SSA self-association studies.
(§2) Section 3: Biological methods
(§3) These methods were taken directly from UK Health and Security Office (UKHSA) standard […]
(§4) Preparation of Luria Broth media (LB): Yeast extract (5.0 g), tryptone (10.0 g) and sodium chloride (10.0 g) were dissolved in dH₂O (1.0 L) then divided into bottles and autoclaved.
(§5) Preparation of Luria Broth (LB) agar plates: Agar (6.0 g) was added to LB (400 mL) and autoclaved. Once cool, the LB agar was poured into sterile petri dishes under sterile conditions and allowed to set. LB plates were stored at 4 °C until use.
(§6) Preparation of bacterial plates: Sterile LB agar plates were streaked using streaked using the desired bacteria i) Pseudomonas aeruginosa (P.aeruginosa) PAO1, ii) Klebsiella pneumoniae (K. pneumoniae) M6 iii) E. coli NCTC 12923 and iv) Acinetobacter baumannii (A. baumannii) ATCC 17978 and Gram-positive i) Staphylococcus aureus (S. aureus) ATCC 9144 ii) Enterococcus faecalis (E. faecalis) NCTC 775 and iii) Enterococcus faecium (E. faecium ) NCTC 12204, then incubated at 37 °C overnight.
(§7) Preparation of Inoculum: An initial culture was made up by inoculating LB media (5 mL) with a single colony of bacteria under sterile conditions and incubated at 37 °C with shaking overnight. The following day, overnight bacterial cultures were subcultured into fresh LB medium to a starting OD600 of 0.01.
(§8) Preparation of 96 well microplate for MIC50: The 1:100 cell suspension (150 µL) was dispensed into individual wells under sterile conditions. SSAs (30 µL) were added to the wells to equal a total volume of 180 µL in the wells. Six repeats of each concentration for each SSA were created each plate. The plates were sealed using parafilm, then incubated at 37 °C in a microplate reader for 20 hours. OD600 endpoint data was used to generate growth curves. […]

[2] = dynamic light scattering (DLS) of SSA aggregates; format: physicochemical; settings: 5.6 mM, H2O 5.0% EtOH, 298 K; listed as 10
Method: Dynamic light scattering (DLS) and zeta potential measurements in H2O 5.0% EtOH were used to determine the hydrodynamic diameter (dH) and stability of the higher-order SSA aggregates detected by (Q) ^1H NMR spectroscopy at 5.6 mM, Table 1. […] However, we are unable to confidently report a dH for 1 due to the instability of this system, which is supported by a zeta potential value of −26 mV, obtained for this SSA under the same experimental conditions. […] Due to the instability of these systems in the absence of solvent, attempts to further characterise these systems through SEM or AFM are not possible.[48]

[3] = system: E. coli NCTC 12923; assay: inhibition of bacterial growth, OD600 after 20 h; format: cell-based, Escherichia coli; settings: SSA 5.0 mM, 2.5% ethanol, negative = enhanced growth
Method: as §1, §2, §3, §4, §5, §6, §7, §8

[4] = system: A. baumannii ATCC 17978; assay: inhibition of bacterial growth, OD600 after 20 h; format: cell-based, Acinetobacter baumannii; settings: SSA 5.0 mM, 2.5% ethanol, negative = enhanced growth, listed as 10
Method: as §1, §2, §3, §4, §5, §6, §7, §8

[5] = system: K. pneumoniae M6; assay: inhibition of bacterial growth, OD600 after 20 h; format: cell-based, Klebsiella pneumoniae; settings: SSA 5.0 mM, 2.5% ethanol, negative = enhanced growth
Method: as §1, §2, §3, §4, §5, §6, §7, §8

[6] = system: S. aureus ATCC 9144; assay: inhibition of bacterial growth, OD600 after 20 h; format: cell-based, Staphylococcus aureus; settings: SSA 5.0 mM, 2.5% ethanol, negative = enhanced growth, listed as 10
Method: as §1, §2, §3, §4, §5, §6, §7, §8

[7] = quantitative (Q) 1H NMR spectroscopy, proportion of SSA becoming NMR silent (higher-order aggregates); format: physicochemical
Method: To confirm the presence of higher order self-associative structures quantitative (Q) ^1H NMR spectroscopy studies were undertaken at 5.6 mM in D2O 5% EtOH. Here the ^1H NMR resonances attributed to the EtOH are used as an internal standard.
Table S1 – Overview of results of the quantitative (Q) 1H NMR studies for 1, 3, 5, 7 and 9
5.0 % EtOH . Values given in % represent the observed proportion of the SSA that has become
Table S2 – Overview of results of the quantitative (Q) 1H NMR studies for 2, 4, 6, 8 and 10
5.0 % EtOH. Values given in % represent the observed proportion of anion and cation that has

[8] = tensiometry: critical aggregate concentration (CAC) and surface tension; format: physicochemical
Method: As the (Q) ^1H NMR spectroscopy experiments conducted at 5.6 mM in a D2O 5.0% EtOH solution confirmed the presence of higher-order self-associated structures with solid-like properties, concentration dependent surface tension measurements, obtained through tensiometry, were used to calculate critical aggregate concentration (CAC). Here the CAC is defined as the point at which an increase in SSA concentration no longer decreases surface tension but instead results in the formation of higher-order self-associated structures.

[9] = system: E. faecalis NCTC 775; assay: inhibition of bacterial growth, OD600 after 20 h; format: cell-based, Enterococcus faecalis; settings: SSA 5.0 mM, 2.5% ethanol, negative = enhanced growth
Method: as §1, §2, §3, §4, §5, §6, §7, §8

[10] = protein binding in human plasma by equilibrium dialysis; format: in vitro ADME
Method: Metabolic stability was assessed in mouse and rat liver microsomes. […] A plasma protein binding assay was performed to assess the extent of compound binding to plasma proteins. This is key as only unbound compound is free to distribute and exert a pharmacological effect. […] To assess the potential for this sub-class of SSAs to be developed as drugs for oral administration, Caco-2 permeability assays were also performed, as a cellular model indicative of human intestinal permeability. […] The […] MS/MS analysis. Samples were analysed using a Shimadzu liquid chromatography system coupled to a Triple Quad 6500+ mass spectrometry (AB Inc.) Separation of compounds was achieved using an HSS T3 column (50 x 2.1 mm) at a temperature of 40 °C and a binary mobile phase gradient at a flow rate of 0.7 mL/min. […] This was ramped to 95 % solvent B at 0.7 minutes, held for 0.5 minutes and then […] returned to initial conditions. Sample analysis was by electrospray ionisation. Protein Binding Measurements in Human Plasma by Using Equilibrium Dialysis Method : The fraction unbound in human plasma (P -KB, Ltd People's hospital of Shandong) were measured using 96-well Equilibrium Dialysis Plate (HTDialysis LLC, Gales Ferry, CT). Human plasma containing 5 μM test compound were dialysed against dialysis buffer (PBS) with initial samples taken to allow for assessment of plasma stability and recovery before the plate was incubated for 6 hours at 37 °C at 5 % CO2. Samples were removed at 6 hours, and all samples […] appropriate analytical internal standard. Samples were centrifuged at 3,220 g for 30 minutes (Eppendorf 5810R) to precipitate protein and enable sampling of supernatant prior to appropriate dilution for liquid chromatography mass -spectrometry (LC-MS/MS) analysis. Samples were analysed using a Shimadzu coupled to a triple Quad 6500 + (AB Inc., Illinois). Separation of analytes was achieved using a Xselect Hss T3 (2.1 x 50 mm) column at a temperature of 40 °C and a binary mobile phase gra dient at a flow rate of 0.8 mL/min. Initial […] formic acid in acetonitrile); this was ramped to 98 % B at 0.5 min, held for 0.4 min and then immediately returned to initial conditions. Sample analysis was by electrospray ionisation in positive ion mode. Bi-directional Permeability in Caco-2 Cell Line: The bi-directional permeability in Caco-2 cell lines was determined by seeding cells onto an HTS Transwell plate. Cells were cultivated for 14-18 days in a cell culture incubator at 37 °C, 5 % CO2, 95 % relative humidity. Cell culture medium was replaced every other day. To assess monolayer integrity the transepithelial electrical resistance (TEER) across the monolayer was measured using Millicell Epithelial volt-ohm meter prior to assay and Lucifer yellow (LY) fluorescence measurement post-assay. Test and control compounds were prepared in DMSO and diluted in Hank's Balanced Saline […] Compound was added to the donor compartment of the transwell plate for both apical to basolateral (A>B) and basolateral to apical (B>A) measurements, with blank HBSS being added to the receiver compartment. The transwell plate was then incubated at 37 °C, 5 % CO2 for 2 hours. 5

[11] = 5.6 mM, D2O 5.0% EtOH, 298 K, listed as 10

Polydispersity index (%) [2]: 26.0 (± 0.5) %
dH (DLS intensity distribution peak 1 maxima) [2]: 307 nm
(Q) 1H NMR spectroscopy, proportion NMR silent, acid or anion [7, 11]: 38%
(Q) 1H NMR spectroscopy, proportion NMR silent, cation [7, 11]: 43.6% and 44%
(Q) 1H NMR, proportion NMR silent, SSA acid or anion ([7]; ~112 mM, DMSO-d6 1.0% DCM): 0%
(Q) 1H NMR, proportion NMR silent, cation ([7]; ~112 mM, DMSO-d6 1.0% DCM): 0%
CAC ([8]; H2O 5.0% EtOH, 298 K): 26.00 mM and 26 mM
ST at CAC ([8]; H2O 5.0% EtOH, 298 K): 41 mN m^−1
Surface tension at CAC ([8]; H2O/5.0 % EtOH, listed as 10): 41.37 mN/m
Compound: O=C(O)CC[C@H](NC(=O)Nc1ccc(Br)cc1)C(=O)O [SSA 10]
inhibition at 5000 µM ([1]; Enterococcus faecium, NCTC12204, 20 h, read-out: Percentage inhibition of bacterial growth, NCTC 12204 (E. faecium)): 34.1%
Percentage inhibition of bacterial growth, NCTC 12204 (E. faecium) ([1]; listed as 10): 34%
inhibition at 5000 µM ([3]; Escherichia coli, NCTC12923, 20 h, read-out: Percentage inhibition of bacterial growth, NCTC 12923 (E. coli)): 67.9%
Percentage inhibition of bacterial growth, NCTC 12923 (E. coli) ([3]; listed as 10): 68%
Percentage inhibition of bacterial growth, ATCC 17978 (A. baumannii) [4]: 49.97% and 50%
inhibition at 5000 µM ([5]; Klebsiella pneumoniae, M6, 20 h, read-out: Percentage inhibition of bacterial growth, M6 (K. pneumoniae)): 32%
Percentage inhibition of bacterial growth, M6 (K. pneumoniae) ([5]; listed as 10): 32%
Percentage inhibition of bacterial growth, ATCC 9144 (S. aureus) [6]: 17.46% and 17%
inhibition at 5000 µM ([9]; Enterococcus faecalis, NCTC775, 20 h, read-out: Percentage inhibition of bacterial growth, NCTC 775 (E. faecalis)): 23.1%
Percentage inhibition of bacterial growth, NCTC 775 (E. faecalis) ([9]; listed as 10): 23%

Compound: CC(=O)N1CCN(c2ccc(OCC3COC(Cn4ccnc4)(c4ccc(Cl)cc4Cl)O3)cc2)CC1 (stereo not shown) [Ketoconazole, reference compound]
remaining at 6 h, 5 µM ([10]; human plasma, 5 µM, 37 °C): 101%
% Unbound ([10]; human, plasma): 0.86%
fraction unbound ([10]; human, plasma): 0.0086
